Assay results reported in PubChem BioAssay AID2060503 (Molecular Pharmacology Branch, DTP, NCI, 2025).

System: 817829-284-R-J1-PDC complex spheroids, viability
Experiment: Anticancer human tumor 817829-284-R-J1-PDC patient-derived colon adenocarcinoma cell line growth inhibition [GQUAD]
Settings: for IC50: curve of first compound; for viability, T/C: stronger effect = lower value; active = viability on the fitted dose curve at most 10% of control; inactive = the rest
Method in brief: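 Viability of tumor cells grown as complex spheroids with endothelial and stromal cells, exposed to drug combinations. Top concentration at or near clinical Cmax (else 10 microM), diluted in half-log increments.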

[1] = second compound 0.0316 µM, first compound 0.0316 µM
[2] = second compound 0.0316 µM, first compound 0.1 µM
[3] = second compound 0.0316 µM, first compound 0.316 µM
[4] = second compound 0.0316 µM, first compound 1 µM
[5] = second compound 0.0316 µM, first compound 3.16 µM
[6] = second compound 0.0316 µM, first compound 10 µM
[7] = second compound 0.1 µM, first compound 0.0316 µM
[8] = second compound 0.1 µM, first compound 0.1 µM
[9] = second compound 0.1 µM, first compound 0.316 µM
[10] = second compound 0.1 µM, first compound 1 µM
[11] = second compound 0.1 µM, first compound 3.16 µM
[12] = second compound 0.1 µM, first compound 10 µM
[13] = second compound 0.316 µM, first compound 0.0316 µM
[14] = second compound 0.316 µM, first compound 0.1 µM
[15] = second compound 0.316 µM, first compound 0.316 µM
[16] = second compound 0.316 µM, first compound 1 µM
[17] = second compound 0.316 µM, first compound 3.16 µM
[18] = second compound 0.316 µM, first compound 10 µM
[19] = second compound 1 µM, first compound 0.0316 µM
[20] = second compound 1 µM, first compound 0.1 µM
[21] = second compound 1 µM, first compound 0.316 µM
[22] = second compound 1 µM, first compound 1 µM
[23] = second compound 1 µM, first compound 3.16 µM
[24] = second compound 1 µM, first compound 10 µM
[25] = second compound 3.16 µM, first compound 0.0316 µM
[26] = second compound 3.16 µM, first compound 0.1 µM
[27] = second compound 3.16 µM, first compound 0.316 µM
[28] = second compound 3.16 µM, first compound 1 µM
[29] = second compound 3.16 µM, first compound 3.16 µM
[30] = second compound 3.16 µM, first compound 10 µM
[31] = second compound 10 µM, first compound 0.0316 µM
[32] = second compound 10 µM, first compound 0.1 µM
[33] = second compound 10 µM, first compound 0.316 µM
[34] = second compound 10 µM, first compound 1 µM
[35] = second compound 10 µM, first compound 3.16 µM
[36] = second compound 10 µM, first compound 10 µM
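Also: spheroids exposed to agents for 7 days before readout.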
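For viability, T/C in this document: percent viability relative to DMSO vehicle control taken as 100%.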

CC(=O)O[C@H]1C(=O)[C@@]2(C)[C@H]([C@H](OC(=O)c3ccccc3)[C@]3(O)C[C@H](OC(=O)[C@H](O)[C@@H](NC(=O)c4ccccc4)c4ccccc4)C(C)=C1C3(C)C)[C@]1(OC(C)=O)CO[C@@H]1C[C@@H]2O + CN(C)c1ccc(Nc2c3ccc(NC(=O)CCN4CCCC4)cc3nc3cc(NC(=O)CCN4CCCC4)ccc23)cc1
< 0.0316 µM: IC50 (second compound 0.0316 µM) | IC50 (second compound 0.1 µM) | IC50 (second compound 0.316 µM) | IC50 (second compound 1 µM) | IC50 (second compound 3.16 µM) | IC50 (second compound 10 µM)
active: viability, T/C [2] 6.36% | viability, T/C [3] 5.48% | viability, T/C [4] 3.71% | viability, T/C [5] 4.17% | viability, T/C [6] 5.39% | viability, T/C [7] 9.42% | viability, T/C [8] 5.98% | viability, T/C [9] 5.19% | viability, T/C [10] 3.91% | viability, T/C [11] 4.27% | viability, T/C [12] 5.02% | viability, T/C [13] 8.92% | viability, T/C [14] 5.75% | viability, T/C [15] 5.24% | viability, T/C [16] 2.54% | viability, T/C [17] 3.86% | viability, T/C [18] 5.06% | viability, T/C [19] 7.08% | viability, T/C [20] 5.92% | viability, T/C [21] 5.25% | viability, T/C [22] 3.52% | viability, T/C [23] 4.82% | viability, T/C [24] 5.09% | viability, T/C [25] 6.77% | viability, T/C [26] 5.36% | viability, T/C [27] 6.1% | viability, T/C [28] 5.09% | viability, T/C [29] 4.3% | viability, T/C [30] 5.84% | viability, T/C [32] 6.08% | viability, T/C [33] 5.52% | viability, T/C [34] 4.61% | viability, T/C [35] 4.57% | viability, T/C [36] 5.48%
inactive: viability, T/C [1] 10.1% | viability, T/C [31] 10.1%

CC1COCCN1c1cc(C2(S(C)(=N)=O)CC2)nc(-c2ccnc3[nH]ccc23)n1 (stereo not given) + Cc1[nH]c2ccc(F)cc2c1-c1nc2c3cccnc3c3ncccc3c2[nH]1
0.701 µM: IC50 (second compound 0.1 µM)
0.683 µM: IC50 (second compound 0.316 µM)
< 0.0316 µM: IC50 (second compound 10 µM)
0.508 µM: IC50 (second compound 3.16 µM)
0.699 µM: IC50 (second compound 0.0316 µM)
active: viability, T/C [5] 11.6% | viability, T/C [6] 8.11% | viability, T/C [11] 10.7% | viability, T/C [12] 7.69% | viability, T/C [18] 8.75% | viability, T/C [23] 10.7% | viability, T/C [24] 6.79% | viability, T/C [29] 6.38% | viability, T/C [30] 4.15% | viability, T/C [34] 4.8% | viability, T/C [35] 4.1% | viability, T/C [36] 2.86%
0.709 µM: IC50 (second compound 1 µM)
inactive: viability, T/C [1] 110% | viability, T/C [2] 95.6% | viability, T/C [3] 106% | viability, T/C [4] 25.7% | viability, T/C [7] 96.8% | viability, T/C [8] 107% | viability, T/C [9] 93.4% | viability, T/C [10] 30.4% | viability, T/C [13] 94.7% | viability, T/C [14] 106% | viability, T/C [15] 95.3% | viability, T/C [16] 27.5% | viability, T/C [17] 11.1% | viability, T/C [19] 89.8% | viability, T/C [20] 117% | viability, T/C [21] 105% | viability, T/C [22] 27.2% | viability, T/C [25] 97.7% | viability, T/C [26] 92% | viability, T/C [27] 77.4% | viability, T/C [28] 10.7% | viability, T/C [31] 45.7% | viability, T/C [32] 39.1% | viability, T/C [33] 30.1%

Nc1ccn(C2OC(CO)C(O)C2(F)F)c(=O)n1 (stereo not given) + CN(C)c1ccc(Nc2c3ccc(NC(=O)CCN4CCCC4)cc3nc3cc(NC(=O)CCN4CCCC4)ccc23)cc1
active: viability, T/C [2] 6.76% | viability, T/C [3] 7.53% | viability, T/C [4] 6.63% | viability, T/C [5] 5.22% | viability, T/C [6] 3.38% | viability, T/C [8] 7.05% | viability, T/C [9] 7.75% | viability, T/C [10] 7.5% | viability, T/C [11] 5.74% | viability, T/C [12] 4.58% | viability, T/C [14] 7.22% | viability, T/C [15] 7.51% | viability, T/C [16] 6.86% | viability, T/C [17] 5.17% | viability, T/C [18] 3.32% | viability, T/C [20] 5.85% | viability, T/C [21] 7.62% | viability, T/C [22] 8.41% | viability, T/C [23] 6.53% | viability, T/C [24] 3.73% | viability, T/C [25] 8.54% | viability, T/C [26] 7.05% | viability, T/C [27] 8.46% | viability, T/C [28] 8.5% | viability, T/C [29] 6.92% | viability, T/C [30] 3.39% | viability, T/C [32] 9.04% | viability, T/C [33] 8.83% | viability, T/C [34] 8.64% | viability, T/C [35] 6.59% | viability, T/C [36] 4.48%
< 0.0316 µM: IC50 (second compound 0.0316 µM) | IC50 (second compound 0.1 µM) | IC50 (second compound 0.316 µM) | IC50 (second compound 1 µM) | IC50 (second compound 3.16 µM) | IC50 (second compound 10 µM)
inactive: viability, T/C [1] 11.1% | viability, T/C [7] 11.5% | viability, T/C [13] 10.2% | viability, T/C [19] 10.5% | viability, T/C [31] 10.7%

CC(=O)O[C@H]1C(=O)[C@@]2(C)[C@H]([C@H](OC(=O)c3ccccc3)[C@]3(O)C[C@H](OC(=O)[C@H](O)[C@@H](NC(=O)c4ccccc4)c4ccccc4)C(C)=C1C3(C)C)[C@]1(OC(C)=O)CO[C@@H]1C[C@@H]2O + Cc1cnc(CNC(=O)c2c(=O)c3ccc(N4CCCN(C)CC4)nc3n3c2sc2ccccc23)cn1
< 0.0316 µM: IC50 (second compound 0.0316 µM) | IC50 (second compound 0.1 µM) | IC50 (second compound 0.316 µM) | IC50 (second compound 1 µM) | IC50 (second compound 3.16 µM) | IC50 (second compound 10 µM)
active: viability, T/C [2] 7.95% | viability, T/C [3] 6.83% | viability, T/C [4] 5.58% | viability, T/C [5] 6.63% | viability, T/C [6] 7.13% | viability, T/C [31] 0.11% | viability, T/C [32] 0.16% | viability, T/C [33] 0.15% | viability, T/C [34] 0.14% | viability, T/C [35] 0.15% | viability, T/C [36] 0.15%
inactive: viability, T/C [1] 13.8% | viability, T/C [7] 16.6% | viability, T/C [8] 15.9% | viability, T/C [9] 13.2% | viability, T/C [10] 13.6% | viability, T/C [11] 14.1% | viability, T/C [12] 14.8% | viability, T/C [13] 17.9% | viability, T/C [14] 20.6% | viability, T/C [15] 19.2% | viability, T/C [16] 19.6% | viability, T/C [17] 16% | viability, T/C [18] 20.2% | viability, T/C [19] 15.3% | viability, T/C [20] 20.4% | viability, T/C [21] 17.4% | viability, T/C [22] 17% | viability, T/C [23] 17.5% | viability, T/C [24] 16.5% | viability, T/C [25] 17.3% | viability, T/C [26] 16.9% | viability, T/C [27] 14.7% | viability, T/C [28] 14.4% | viability, T/C [29] 12.7% | viability, T/C [30] 13.1%

CCCS(=O)(=O)Nc1ccc(F)c(C(=O)c2c[nH]c3ncc(-c4ccc(Cl)cc4)cc23)c1F + Cc1[nH]c2ccc(F)cc2c1-c1nc2c3cccnc3c3ncccc3c2[nH]1
0.0549 µM: IC50 (second compound 10 µM)
5.84 µM: IC50 (second compound 0.0316 µM) | IC50 (second compound 0.316 µM)
inactive: viability, T/C [1] 107% | viability, T/C [2] 106% | viability, T/C [3] 102% | viability, T/C [4] 107% | viability, T/C [5] 85% | viability, T/C [6] 19.3% | viability, T/C [7] 117% | viability, T/C [8] 107% | viability, T/C [9] 111% | viability, T/C [10] 95.4% | viability, T/C [11] 74.1% | viability, T/C [12] 22.6% | viability, T/C [13] 102% | viability, T/C [14] 113% | viability, T/C [15] 106% | viability, T/C [16] 92% | viability, T/C [17] 84.9% | viability, T/C [18] 21.6% | viability, T/C [19] 117% | viability, T/C [20] 106% | viability, T/C [21] 119% | viability, T/C [22] 101% | viability, T/C [23] 80.8% | viability, T/C [24] 16.9% | viability, T/C [25] 60.6% | viability, T/C [26] 40.4% | viability, T/C [27] 38% | viability, T/C [28] 23.6% | viability, T/C [29] 21.1% | viability, T/C [30] 10.1% | viability, T/C [31] 67.5% | viability, T/C [32] 30.9% | viability, T/C [33] 12%
5.48 µM: IC50 (second compound 1 µM)
0.067 µM: IC50 (second compound 3.16 µM)
active: viability, T/C [34] 5.4% | viability, T/C [35] 4.9% | viability, T/C [36] 5.95%
5.38 µM: IC50 (second compound 0.1 µM)
